As usually defined, the AUC(0-inf) is the area under the concentration-time curve extrapolated to infinity. Lower therefore signals less exposure. By Cmax is commonly meant the maximum level reached in the sampled fluid or tissue. One may read the CL/F as the apparent clearance, not corrected for the fraction that reaches the circulation. In general, AUC(0-t) refers to the area under the concentration-time curve up to a stated or last time point. The low end stands for low exposure, the high end for high exposure. What is called clearance is the volume of plasma or blood freed of the substance per unit of time.

The source made the active and inactive calls. The calls are words filed in the database; no cut-off is given here.

We go through one molecule from ChEMBL document CHEMBL5360625, “Design, Synthesis, and Antitumor Activity Evaluation of 2-Arylmethoxy-4-(2,2'-dihalogen-substituted biphenyl-3-ylmethoxy) Benzylamine Derivatives as Potent PD-1/PD-L1 Inhibitors” (J Med Chem, 2023).

The subject of data set [1] is MC-38. The experiment in a line: Antitumor activity against mouse MC38 cells implanted in PD-1/PD-L1 humanized C57/BL6 mouse assessed as reduction in tumor growth at 50 mg/kg, IG qd administered on day 5 measured after 2 weeks. The data set is classed as functional, organism-based.
Data set [2] can be described thus: AUC (0 to infinity) in Sprague-Dawley rat at 10 mg/kg, ip measured upto 48 hrs by LC-MS/MS analysis. The data set is classed as ADME, organism-based. Also noted: time < 48 hrs, dose 10 mg/kg, route ip. Conditions: in vivo.
Data set [3] in a line: Cmax in Sprague-Dawley rat at 10 mg/kg, ip measured upto 48 hrs by LC-MS/MS analysis. Type of data set: ADME, organism-based. Further details: time < 48 hrs, dose 10 mg/kg, route ip. The conditions noted are these: in vivo.
The subject of data set [4] is MC-38. The experiment in a line: Immunomodulatory activity in mouse MC38 cells implanted in PD-1/PD-L1 humanized C57/BL6 mouse assessed as decrease in PD-L1 mRNA expression level in tumor at 50 mg/kg, IG qd administered on day 5 measured after 2 weeks by RT-PCR analysis. The data set is classed as functional, organism-based.
The next data set concerns PBMC. The experiment in a line: Cytotoxicity against human PBMC cells assessed as reduction in cell viability at 1 to 4 uM measured after 48 hrs by CCK-8 assay. The data set is classed as toxicity, cell-based. The conditions noted are these: dose 1-4 µM.
A short description of data set [5]: Clearance in Sprague-Dawley rat at 40 mg/kg, IG measured upto 48 hrs by LC-MS/MS analysis. Type of data set: ADME, organism-based. The conditions noted are these: Sprague-Dawley, in vivo, po.
The subject of data set [6] is MC-38. The data set can be described thus: Immunomodulatory activity in mouse MC38 cells implanted in PD-1/PD-L1 humanized C57/BL6 mouse assessed as increase in CXCR3 mRNA expression level in tumor at 50 mg/kg, IG qd administered on day 5 measured after 2 weeks by RT-PCR analysis. The data set is classed as functional, organism-based.
Data set [7] is described as follows: AUC (0 to t) in Sprague-Dawley rat at 40 mg/kg, IG measured upto 48 hrs by LC-MS/MS analysis. Type of data set: ADME, organism-based. Also noted: dose 40 mg/kg, time < 48 hrs, route ig. Conditions: in vivo, po.
The nature of data set [8]: Toxicity in PD-1/PD-L1 humanized C57/BL6 mouse implanted with mouse MC38 cells assessed as morphological change in heart at 50 mg/kg, IG qd administered on day 5 measured after 2 weeks by hematoxylin-eosin staining based inverted fluorescent microscopic analysis. Type of data set: organism-based, MC-38. Conditions: in vivo, po, 336 h.
Data set [9] concerns MC-38. The data set can be described thus: Immunomodulatory activity in mouse MC38 cells implanted in PD-1/PD-L1 humanized C57/BL6 mouse assessed as increase in CXCL10 mRNA expression level in tumor at 50 mg/kg, IG qd administered on day 5 measured after 2 weeks by RT-PCR analysis. The data set is classed as functional, organism-based.
Data set [10] can be described thus: Clearance in Sprague-Dawley rat at 8 mg/kg, iv measured upto 48 hrs by LC-MS/MS analysis. Type of data set: ADME, organism-based. The conditions noted are these: Sprague-Dawley, in vivo.
A short description of data set [11]: Toxicity in PD-1/PD-L1 humanized C57/BL6 mouse implanted with mouse MC38 cells assessed as mortality at 50 mg/kg, IG qd administered on day 5 measured after 2 weeks. The data set is classed as organism-based, MC-38. Conditions: in vivo, po, 336 h.
Data set [12] can be described thus: Hepatotoxicity in PD-1/PD-L1 humanized C57/BL6 mouse implanted with mouse MC38 cells assessed as effect on ALT level in serum at 50 mg/kg, IG qd administered on day 5 measured after 2 weeks. Type of data set: toxicity, organism-based, MC-38. The conditions noted are these: in vivo, po, 336 h.
A short description of data set [13]: Hepatotoxicity in PD-1/PD-L1 humanized C57/BL6 mouse implanted with mouse MC38 cells assessed as effect on ALB level in serum at 50 mg/kg, IG qd administered on day 5 measured after 2 weeks. Type of data set: toxicity, organism-based, MC-38. Conditions: in vivo, po, 336 h.
Data set [14] can be described thus: Nephrotoxicity in PD-1/PD-L1 humanized C57/BL6 mouse implanted with mouse MC38 cells assessed as effect on urea level in serum at 50 mg/kg, IG qd administered on day 5 measured after 2 weeks. Conditions: in vivo, po, 336 h. Type of data set: toxicity, organism-based, MC-38.
Data set [15] has as its system MC-38. The experiment in a line: Antitumor activity against mouse MC38 cells implanted in PD-1/PD-L1 humanized C57/BL6 mouse assessed as increase in CD8 positive CD4 positive ratio in tumor at 50 mg/kg, IG qd administered on day 5 measured after 2 weeks by flow cytometry analysis. Type of data set: functional, organism-based. In general terms: Flow cytometry measures light scatter and fluorescence of single cells or particles in a stream.

In the case of `N#Cc1cncc(COc2cc(OCc3cccc(-c4ccccc4F)c3Cl)ccc2CNCCO)c1`, the result in the data set with MC-38 [1], with MC-38 [4], with MC-38 [6], with MC-38 [9] and with MC-38 [15] was Active. Also, in [2], the AUC(0-inf) stood at 10500 ng·h/mL. In addition, the maximum concentration (Cmax) in data set [3] came out at 4160 ng/mL. In addition, the Activity entry (in the data set on PBMC; in data set [8]; in data set [11]; in data set [12]; in data set [13]; in data set [14]) was “Non-Toxic” each time. The molecule further showed a CL/F in [5] of 10.3 mL/min/kg. Further, the AUC(0-t) at 48 h in data set [7] was determined as 63600 ng·h/mL. In data set [10], this molecule had a clearance of 10 mL/min/kg.
